In publication PMC11148080, “Ru(II)-based complexes containing 2-thiouracil derivatives suppress liver cancer stem cells by targeting NF-κB and Akt/mTOR signaling” (Cell Death Discovery, 2024):

Tests used:
Type in all cases: cell-based, human
HepG2 cells [1] = assay: Trypan blue exclusion assay; conditions: HepG2, 72 h
Description: The number of viable cells (unstained cells) and nonviable cells (trypan blue-stained cells) was counted by the trypan blue exclusion test. Briefly, 90 μL of cell suspension was selected, and 10 μL of trypan blue (0.4%) was added. A hemocytometer was used to fill the aliquot of the homogenized cell suspension, and the cells were counted under a light microscope.

HepG2 tumorspheres = assay: HepG2 tumorspheres; conditions: for HepG2 tumorsphere growth: 3D tumorspheres; for cell death in HepG2 tumorspheres (AO/PI): 48 h, 10 μM complex 1, 5 μM complex 2
Description: HepG2 cells were seeded at a low cell density (1000 cells/well in 2 mL) in 24-well low-adhesion plates (Corning, USA) using serum-free DMEM-F12 supplemented with 20 ng/mL EGF (PeproTech, USA), 20 ng/mL bFGF (PeproTech, USA), and B27 supplement (Invitrogen, Carlsbad, CA, USA). After 5 days of incubation (to allow spheroid formation), the cells were treated with 20, 10, 5, 2.5 or 1.25 µM of each complex. The cells were photographed after 0, 24, and 48 h of treatment using an optical microscope (Leica, DMI8). In a new set of experiments, cells were treated with 10 µM complex 1 or 5 µM complex 2 for 48 h, stained with acridine orange (1 μg/mL) plus PI (1 μg/mL) and analyzed by a Leica TCS SP8 confocal microscope (Leica Microsystems, Wetzlar, HE, Germany).

HepG2 cells [2] = assay: Mitochondrial transmembrane potential (rhodamine 123); conditions: HepG2, 24 h
Description: For apoptosis detection, cell viability was quantified using Annexin V-FITC/PI (FITC Annexin V Apoptosis Detection Kit I, BD Biosciences, San Jose, CA, USA) according to the manufacturer’s instructions. The cells were also stained with rhodamine 123 (5 μg/mL, Sigma Aldrich Co.) for 15 min at 37 °C in the dark to assess the mitochondrial transmembrane potential. After the cells were washed, they were incubated in saline for 30 min in the dark at 37 °C and analyzed by flow cytometry.

HepG2 cells [3] = assay: NF-κB and Akt/mTOR signaling protein levels by flow cytometry; conditions: HepG2, 24 h; for level of Akt1 / level of phospho-4EBP1 (T36/T45) / level of phospho-Akt (S473) / level of phospho-Akt (T308) / level of phospho-PI3K p85/p55 (T458/T199) / level of phospho-elF4E (S209) / level of phospho-mTOR (S2448): 8 μM complex 1, 6 μM complex 2
Description: (§1) To stain intracellular proteins, the cells were harvested and resuspended in 0.5-1 mL of 4% formaldehyde for 10 min at 37 °C. The tube was then placed on ice for 1 min, after which the cells were prechilled and permeabilized using a sequence of 100% (30 min) to 90% (30 min) methanol with gentle mixing. After washing with incubation buffer (0.5% bovine serum albumin in PBS), primary antibodies were added and incubated for 1 h at room temperature. Finally, the cells were washed with PBS, and flow cytometry was used to measure cell fluorescence.
For all flow cytometry analyses, cellular fluorescence was measured using a BD LSRFortessa cytometer, BD FACSDiva software (BD Biosciences) and FlowJo software 10 (FlowJo LLC; Ashland, OR, USA). A minimum of 10,000 events were obtained per sample for intracellular staining, and a minimum of 30,000 events per sample were acquired for cell surface protein staining. Doublets were removed using FSC-A vs FCS-H and SCC-A vs SCC-H. Cellular debris was excluded from the analysis.

HepG2 cells [4] = assay: p62/SQSTM1 expression (autophagy); conditions: HepG2, 24 h; 8 μM complex 1, 6 μM complex 2
Description: as §1
The cells were grown on coverslips in 24-well plates and exposed to the drugs for 24 h. The cells were then washed twice with saline solution, permeabilized with 0.5% Triton X-100, treated with RNase (10 μg/mL), and incubated overnight with a primary fluorochrome-conjugated antibody (for antibody details, see Table S5). The next day, the cells were washed with saline solution and mounted using Fluoromount-G with DAPI (Invitrogen, Thermo Fisher Scientific). The cells were examined using a Leica TCS SP8 confocal microscope (Leica Microsystems, Wetzlar, HE, Germany).

HepG2 cells [5] = assay: Wound healing assay; conditions: 72 h; 0.5 μM complex 1, 0.3 μM complex 2 (noncytotoxic)
Description: Wound healing assays were performed as previously described. The cells were grown to 80–90% confluency in 12-well plates, and a wound was formed by dragging a plastic pipette tip over the cell surface. The remaining cells were washed three times with saline solution to eliminate cell debris before being cultured in serum-free media and treated with drugs. After 0 and 72 h of incubation, the migrating cells in front of the wound were photographed using an optical microscope (Nikon, TS 100). The wound area was calculated using ImageJ software from the National Institutes of Health (NIH, USA).

HepG2 cells [6] = assay: Transwell migration assay; conditions: same concentrations (0.5 μM complex 1, 0.3 μM complex 2), 24 h
Description: Transwell plates were used for the cell migration assay, as previously described. The cells were initially incubated in serum-free media for 24 h. We used uncoated cell culture inserts in 6-well plates ([…]; Corning, USA). The upper chamber received 1.5 mL of serum-free medium, whereas the bottom chamber received 2 mL of medium containing 20% FBS. Cotton swabs were used to remove cells that remained in the top chamber after 24 h. The cells on the bottom surface of the membrane were fixed in 4% paraformaldehyde and stained with 0.5% crystal violet. The cells were imaged and counted using an optical microscope (Leica, DMI8).

F[P-](F)(F)(F)(F)F.O=c1cc[nH]c([S][Ru+])n1.c1ccc(-c2ccccn2)nc1.c1ccc(P(c2ccccc2)c2ccccc2)cc1.c1ccc(P(c2ccccc2)c2ccccc2)cc1 [Complex 1, trans-[Ru(2TU)(PPh3)2(bipy)]PF6]
reduction of cell viability (HepG2 cells [1]; 2 µM): 46.5%
reduction of cell viability (HepG2 cells [1]; 4 µM): 72.2%
reduction of cell viability (HepG2 cells [1]; 8 µM): 95.8%
HepG2 tumorsphere growth (HepG2 tumorspheres): reduced
cell death in HepG2 tumorspheres (AO/PI) (HepG2 tumorspheres): caused cell death
mitochondrial depolarization (HepG2 cells [2]): Significant mitochondrial depolarization
level of phospho-NF-κB p65 (S529) (HepG2 cells [3]; 8 μM complex 1): reduced
level of phospho-S6 (S235/S236) (HepG2 cells [3]; 8 μM complex 1): reduced
level of Akt1 (HepG2 cells [3]): reduced
level of phospho-4EBP1 (T36/T45) (HepG2 cells [3]): not affected
level of phospho-Akt (S473) (HepG2 cells [3]): reduced
level of phospho-Akt (T308) (HepG2 cells [3]): not affected
level of phospho-PI3K p85/p55 (T458/T199) (HepG2 cells [3]): not affected
level of phospho-elF4E (S209) (HepG2 cells [3]): not affected
level of phospho-mTOR (S2448) (HepG2 cells [3]): reduced
induction of autophagy (p62/SQSTM1 expression) (HepG2 cells [4]): none of them caused autophagy
HepG2 cell migration, wound healing (HepG2 cells [5]): reduced
motility, transwell cell migration (HepG2 cells [6]): reduced motility

Cc1cc(=O)nc([S][Ru+])[nH]1.F[P-](F)(F)(F)(F)F.c1ccc(-c2ccccn2)nc1.c1ccc(P(c2ccccc2)c2ccccc2)cc1.c1ccc(P(c2ccccc2)c2ccccc2)cc1 [Complex 2, trans-[Ru(6m2TU)(PPh3)2(bipy)]PF6]
reduction of cell viability (HepG2 cells [1]; 1.5 µM): 39.4%
reduction of cell viability (HepG2 cells [1]; 3 µM): 61.4%
reduction of cell viability (HepG2 cells [1]; 6 µM): 93.5%
HepG2 tumorsphere growth (HepG2 tumorspheres): reduced
cell death in HepG2 tumorspheres (AO/PI) (HepG2 tumorspheres): caused cell death
mitochondrial depolarization (HepG2 cells [2]): Significant mitochondrial depolarization
level of Akt1 (HepG2 cells [3]): reduced
level of phospho-4EBP1 (T36/T45) (HepG2 cells [3]): not affected
level of phospho-Akt (S473) (HepG2 cells [3]): reduced
level of phospho-Akt (T308) (HepG2 cells [3]): not affected
level of phospho-PI3K p85/p55 (T458/T199) (HepG2 cells [3]): not affected
level of phospho-elF4E (S209) (HepG2 cells [3]): not affected
level of phospho-mTOR (S2448) (HepG2 cells [3]): reduced
induction of autophagy (p62/SQSTM1 expression) (HepG2 cells [4]): none of them caused autophagy
HepG2 cell migration, wound healing (HepG2 cells [5]): reduced
motility, transwell cell migration (HepG2 cells [6]): reduced motility
